Experimental data from ChEMBL document CHEMBL5579852, “Promising anti-proliferative indolic benzenesulfonamides alter mechanisms with sulfonamide nitrogen substituents” (Eur J Med Chem, 2024).
Active and inactive are the calls of the source. No cut-off for these calls is given here.

Tests used:
MES-SA [1] = assay: Induction of apoptosis in human MES-SA cells assessed as necrotic cells at 100 nM incubated for 24 hrs by live/dead orange and TUNEL staining based flow cytometry analysis relative to control; assay type: functional
HeLa [2] = assay: Antiproliferative activity against human HeLa cells assessed as reduction in cell viability incubated for 72 hrs by MTT assay; assay type: functional, cell-based
MCF7 = assay: Antiproliferative activity against human MCF7 cells assessed as reduction in cell viability incubated for 72 hrs by CelltiterGlo luminescent assay; assay type: functional, cell-based; conditions: MCF7, 72 h
BT-474 = assay: Antiproliferative activity against human BT-474 cells assessed as reduction in cell viability incubated for 72 hrs by CelltiterGlo luminescent assay; conditions: BT-474, 72 h
MES-SA [3] = assay: Antiproliferative activity against human MES-SA cells assessed as reduction in cell viability incubated for 72 hrs by CelltiterGlo luminescent assay
HT-1080 = assay: Antiproliferative activity against human HT-1080 cells assessed as reduction in cell viability incubated for 72 hrs by CelltiterGlo luminescent assay; conditions: HT-1080, 72 h
[4] = Antiproliferative activity against human Melmet 5 cells assessed as reduction in cell viability incubated for 72 hrs by CelltiterGlo luminescent assay; conditions: Melmet 5, 72 h
A-375 = assay: Antiproliferative activity against human A-375 cells assessed as reduction in cell viability incubated for 72 hrs by CelltiterGlo luminescent assay; conditions: A-375, 72 h
[5] = Antiproliferative activity against human WM1366 cells assessed as reduction in cell viability incubated for 72 hrs by CelltiterGlo luminescent assay; conditions: WM1366, 72 h
CAKI-1 [6] = assay: Antiproliferative activity against human CAKI-1 cells assessed as reduction in cell viability incubated for 72 hrs by CelltiterGlo luminescent assay; conditions: CAKI-1, 72 h
[7] = Antiproliferative activity against human Hermes 3C cells assessed as reduction in cell viability incubated for 72 hrs by CelltiterGlo luminescent assay; assay type: toxicity, cell-based
[8] = Antiproliferative activity against human HEK293 cells assessed as reduction in cell viability incubated for 72 hrs by CelltiterGlo luminescent assay; assay type: toxicity, cell-based
[9] = Antiproliferative activity against human RPE-1 cells assessed as reduction in cell viability incubated for 72 hrs by CelltiterGlo luminescent assay; assay type: toxicity, cell-based; conditions: RPE-1 cells (TERT-RPE1)
HeLa [10] = assay: Antiproliferative activity against human HeLa cells assessed as reduction in cell viability incubated for 72 hrs by CelltiterGlo luminescent assay; assay type: functional, cell-based
HeLa [11] = assay: Antiproliferative activity against human HeLa cells assessed as inhibition of cell growth incubated for 72 hrs in absence of verapamil by MTT assay; assay type: functional, cell-based
HeLa [12] = assay: Antiproliferative activity against human HeLa cells assessed as inhibition of cell growth incubated for 72 hrs in presence of verapamil by MTT assay; assay type: functional, cell-based
MES-SA [13] = assay: Cell cycle distribution in human MES-SA cells assessed as accumulation of cells in G1 phase cells at 100 nM incubated for 24 hrs by Hoechst 33258 staining based flow cytometry (reference value: 60%); assay type: functional
MES-SA [14] = assay: Cell cycle distribution in human MES-SA cells assessed as accumulation of cells in G2 phase cells at 100 nM incubated for 24 hrs by Hoechst 33258 staining based flow cytometry (reference value: 12 %); assay type: functional
MES-SA [15] = assay: Cell cycle distribution in human MES-SA cells assessed as accumulation of cells in M phase cells at 100 nM incubated for 24 hrs by Hoechst 33258 staining based flow cytometry (reference value: 1.3 %); assay type: functional
MES-SA [16] = assay: Cell cycle distribution in human MES-SA cells assessed as accumulation of cells in S phase cells at 100 nM incubated for 24 hrs by Hoechst 33258 staining based flow cytometry (reference value: 27 %); assay type: functional
MES-SA [17] = assay: Induction of apoptosis in human MES-SA cells assessed as late apoptotic cells at 100 nM incubated for 24 hrs by live/dead orange and TUNEL staining based flow cytometry analysis relative to control; assay type: functional
MES-SA [18] = assay: Induction of apoptosis in human MES-SA cells assessed as apoptotic cells at 100 nM incubated for 24 hrs by live/dead orange and TUNEL staining based flow cytometry analysis relative to control; assay type: functional
MES-SA [19] = assay: Induction of apoptosis in human MES-SA cells assessed as live cells at 100 nM incubated for 24 hrs by live/dead orange and TUNEL staining based flow cytometry analysis relative to control; assay type: functional
MES-SA [20] = assay: Induction of apoptosis in human MES-SA cells assessed as dead cells at 100 nM incubated for 24 hrs by live/dead orange and TUNEL staining based flow cytometry analysis relative to control; assay type: functional
MES-SA [21] = assay: Induction of apoptosis in human MES-SA cells assessed as increase in caspase 3/7 activation at 100 nM by live-cell imaging based fluorescence assay; assay type: functional; conditions: time 3.0 day, TDE = time-dependent effect
Tubulin (Homo sapiens) = Tubulin (Homo sapiens) (UniProt P68371+Q9H4B7+P0DPH7+P68366+Q13509+Q71U36+P04350+Q3ZCM7+P07437+P68363+Q9BQE3+Q6PEY2+Q13885+Q9BVA1+Q9BUF5); assay: Inhibition of tubulin polymerization in human MES-SA cells assessed as appearance of spherical shaped cells at 10 nM incubated for 24 hrs by DAPI staining based confocal microscopy analysis; assay type: cell-based
MES-SA [22] = assay: Cell cycle distribution in human MES-SA cells assessed as accumulation of cells in G2/M phase cells at 100 nM incubated for 24 hrs by Hoechst 33258 staining based flow cytometry (reference value: 13.3 %); assay type: functional
MDA-MB-468 = assay: cells; conditions: Homo sapiens, MDA-MB-468, 72 h
Description: Antiproliferative activity against human MDA-MB-468 cells assessed as reduction in cell viability incubated for 72 hrs by CelltiterGlo luminescent assay

cells = conditions: Homo sapiens, MDA-MB-468, 72 h
CAKI-1 [23] = assay: Antiproliferative activity against human CAKI-1 cells assessed as reduction in cell viability incubated for 72 hrs by CelltiterGlo luminescent assay

Work on `COc1cc(S(=O)(=O)Nc2ccc3c(c2)c(C#N)cn3C)cc(OC)c1OC` yielded an Activity (MES-SA [1]) of 4.5%, an IC50 (HeLa [2]) of 43 nM and an IC50 (MCF7) of 12.1 nM. For the same compound, the IC50 (BT-474) was 57.5 nM, the IC50 (MES-SA [3]) was 11.8 nM and the IC50 (HT-1080) was 12.1 nM. It also gave an IC50 [4] of 1.6 nM, an IC50 (A-375) of 33.2 nM and an IC50 [5] of 65.7 nM. It also gave an IC50 (CAKI-1 [6]) of 32.4 nM, an IC50 at 72 h [7] of 87.1 nM and an IC50 at 72 h [8] of 18.2 nM. For the same compound, the IC50 at 72 h [9] was 52.8 nM, the IC50 (HeLa [10]) was 13.3 nM and the IC50 (HeLa [11]) was 43 nM. The IC50 (HeLa [12]) was 29.1 nM, the Activity (MES-SA [13]) was 4% and the Activity (MES-SA [14]) was 22%. The Activity (MES-SA [15]) was 67.7%, the Activity (MES-SA [16]) was 6% and the Activity (MES-SA [17]) was 1.8%. The Activity (MES-SA [18]) was 5.8%, the Activity (MES-SA [19]) was 88% and the Activity (MES-SA [20]) was 12%. For the same compound, the Activity (MES-SA [21]) was “Tde”, the inhibition (Tubulin (Homo sapiens)) was “inactive” and the Activity (MES-SA [22]) was 83.6%. For the same compound, the IC50 (MDA-MB-468) was 11.8 nM and the IC50 (cells) was 12.4 nM.

Compound `COc1cc(S(=O)(=O)N(C)c2ccc3c(c2)c(C(N)=O)cn3C)cc(OC)c1OC` has an Activity (MES-SA [1]) of 1.8%, an IC50 (HeLa [2]) of 15 nM and an IC50 (MCF7) of 44 nM. For the same compound, the IC50 (BT-474) was 17.9 nM, the IC50 (MES-SA [3]) was 12.2 nM and the IC50 (HT-1080) was 14.3 nM. The IC50 [4] was 12.2 nM, the IC50 (A-375) was 22.8 nM and the IC50 [5] was 21.3 nM. The IC50 (CAKI-1 [6]) was 29.6 nM, the IC50 at 72 h [7] was 31.8 nM and the IC50 at 72 h [8] was 92.2 nM. For the same compound, the IC50 at 72 h [9] was 22.7 nM, the IC50 (HeLa [10]) was 13.9 nM and the IC50 (HeLa [11]) was 24.3 nM. The IC50 (HeLa [12]) was 18.2 nM, the Activity (MES-SA [13]) was 4% and the Activity (MES-SA [14]) was 10%. The Activity (MES-SA [15]) was 75.3%, the Activity (MES-SA [16]) was 6% and the Activity (MES-SA [17]) was 1.6%. The Activity (MES-SA [18]) was 4.8%, the Activity (MES-SA [19]) was 91.8% and the Activity (MES-SA [21]) was “Tde”. The inhibition (Tubulin (Homo sapiens)) was “Active”, the Activity (MES-SA [22]) was 83.6% and the IC50 (MDA-MB-468) was 26 nM. It also gave an IC50 (cells) of 70.8 nM.

Work on `COc1cc(S(=O)(=O)N(C)c2ccc3c(ccn3C)c2)cc(OC)c1OC` yielded an Activity (MES-SA [1]) of 3.4%, an IC50 (HeLa [2]) of 3.2 nM and an IC50 (MCF7) of 15.8 nM. For the same compound, the IC50 (BT-474) was 34.5 nM, the IC50 (MES-SA [3]) was 9 nM and the IC50 (HT-1080) was 11.8 nM. The IC50 [4] was 12.9 nM, the IC50 (A-375) was 17.5 nM and the IC50 [5] was 13.5 nM. It also gave an IC50 (CAKI-1 [6]) of 11 nM, an IC50 at 72 h [7] of 67.4 nM and an IC50 at 72 h [8] of 12.3 nM. It also gave an IC50 at 72 h [9] of 20 nM, an IC50 (HeLa [10]) of 14.5 nM and an IC50 (HeLa [11]) of 50.1 nM. For the same compound, the IC50 (HeLa [12]) was 40.9 nM, the Activity (MES-SA [13]) was 4% and the Activity (MES-SA [14]) was 10%. The Activity (MES-SA [15]) was 75.3%, the Activity (MES-SA [16]) was 6% and the Activity (MES-SA [17]) was 0.9%. For the same compound, the Activity (MES-SA [18]) was 5.7%, the Activity (MES-SA [19]) was 90% and the Activity (MES-SA [21]) was “Tde”. The inhibition (Tubulin (Homo sapiens)) was “Active”, the Activity (MES-SA [22]) was 83.6% and the IC50 (MDA-MB-468) was 24.4 nM. The IC50 (cells) was 67.6 nM.

`COc1cc(S(=O)(=O)N(C)c2ccc3c(c2)c(C#N)cn3C)cc(OC)c1OC` showed an Activity (MES-SA [1]) of 2.3%, an IC50 (HeLa [2]) of 8 nM and an IC50 (MCF7) of 12.3 nM. The IC50 (BT-474) was 16.3 nM, the IC50 (MES-SA [3]) was 6.3 nM and the IC50 (HT-1080) was 15.3 nM. It also gave an IC50 [4] of 10.6 nM, an IC50 (A-375) of 11.7 nM and an IC50 [5] of 20.2 nM. The IC50 at 72 h [7] was 45.6 nM, the IC50 at 72 h [8] was 29 nM and the IC50 at 72 h [9] was 13.2 nM. For the same compound, the IC50 (HeLa [10]) was 16 nM, the IC50 (HeLa [11]) was 25.7 nM and the IC50 (HeLa [12]) was 24.6 nM. It also gave an Activity (MES-SA [13]) of 4%, an Activity (MES-SA [14]) of 10% and an Activity (MES-SA [15]) of 75.3%. The Activity (MES-SA [16]) was 6%, the Activity (MES-SA [17]) was 1.3% and the Activity (MES-SA [18]) was 5%. For the same compound, the Activity (MES-SA [19]) was 91.4%, the Activity (MES-SA [21]) was “Tde” and the inhibition (Tubulin (Homo sapiens)) was “Active”. It also gave an Activity (MES-SA [22]) of 83.6%, an IC50 (MDA-MB-468) of 28 nM and an IC50 (cells) of 69.5 nM. The Activity (CAKI-1 [23]) was “inactive”.
